Data published in US10165779B2, “Substituted pyrazolylpyrazole derivative and use of same as herbicide” (KYOYU AGRI CO., LTD., priority 2015, dated 2019).

Columns and labels:
Format in all cases: in vivo
[1] = system: Scirpus juncoides; assay: Paddy herbicidal activity test; settings: irrigated paddy pot, 30 days
Experimental: (§1) After treating for 30 days in a glass greenhouse at an average atmospheric temperature of 30° C., the herbicidal efficacy thereof was investigated. Evaluation of herbicidal efficacy was carried out by comparing growth inhibition rate (%) with an untreated group, while evaluation of phytotoxicity was carried out by comparing growth inhibition rate (%) with the state of a complete eradication group, and were evaluated at 11 levels indicated below. […] 2: 20% to less than 30% 3: 30% to less than 40% 4: 40% to less than 50% 5: 50% to less than 60% 6: 60% to less than 70% 7: 70% to less than 80% […]

[2] = system: Echinochloa crus-galli; assay: Paddy herbicidal activity test; settings: irrigated paddy pot, treated at 3.5 leaf stage of Echinochloa crus-galli, 30 days
Experimental: as §1

[3] = system: Monochoria vaginalis; assay: Paddy herbicidal activity test; settings: irrigated paddy pot, 30 days
Experimental: as §1

[4] = system: Digitaria ciliaris; assay: Weed foliar treatment test (Test 3, 1.0 to 2.0 leaf stage); settings: foliar spray at 1.0 to 2.0 leaf stage of Digitaria ciliaris, 3 weeks
Experimental: (§2) Soil was filled into a 1/6000 are pot followed by seeding with Digitaria ciliaris, Chenopodium album and Amaranthus retroflexus, covering with soil, and cultivating in a glass greenhouse at an average atmospheric temperature of 25° C.
(§3) Wettable powders of Target Compound (I) shown in Table 1 prepared in compliance with the preparation examples were diluted with water to the prescribed amount of chemical and uniformly sprayed onto the weeds using 150 liters of sprayed water per 10 are when Digitaria ciliaris had grown to the 1.0 to 2.0 leaf stage.
(§4) After treating for 3 weeks in a glass greenhouse at an average atmospheric temperature of 25° C., the herbicidal efficacy thereof was investigated.
(§5) Evaluation of herbicidal efficacy was carried out in the same manner as the above-mentioned Test Example 1.

[5] = system: Chenopodium album; assay: as above; settings: foliar spray at 1.0 to 2.0 leaf stage of Digitaria ciliaris, 3 weeks
Experimental: as §2, §3, §4, §5

[6] = system: Amaranthus retroflexus; assay: as above; settings: foliar spray at 1.0 to 2.0 leaf stage of Digitaria ciliaris, 3 weeks
Experimental: as §2, §3, §4, §5

[7] = system: Oryza sativa; assay: Paddy herbicidal activity test, phytotoxicity to transplanted rice; settings: rice transplanted at 2.0 leaf stage, 30 days
Experimental: as §1

[8] = system: Digitaria ciliaris; assay: Farming soil treatment test; settings: soil surface spray prior to weed growth, 30 days
Experimental: (§6) Field soil was filled into a 1/6000 are pot followed by seeding with Digitaria cilaris, Chenopodium album and Amaranthus retroflexus and covering with soil.
(§7) Wettable powders of compounds of formula (I) shown in Table 1 prepared in compliance with the preparation examples were diluted. with water to the prescribed amount of chemical and uniformly sprayed onto each soil surface layer using 100 liters of sprayed water per 10 are prior to weed growth following seeding.
(§8) After treating for 30 days in a glass greenhouse at an average atmospheric temperature of 30° C., the herbicidal efficacy thereof was investigated.
as §5

[9] = system: Chenopodium album; assay: Farming soil treatment test; settings: soil surface spray prior to weed growth, 30 days
Experimental: as §6, §7, §8, §5

[10] = system: Amaranthus retroflexus; assay: Farming soil treatment test; settings: soil surface spray prior to weed growth, 30 days
Experimental: as §6, §7, §8, §5

[11] = system: Digitaria ciliaris; assay: Weed foliar treatment test (Test 4, 4.0 to 5.0 leaf stage); settings: 10 g a.i./10a; foliar spray at 4.0 to 5.0 leaf stage of Digitaria ciliaris (plant height 10 cm to 15 cm); 20 days
Experimental: (§9) Field soil was filled into a 1/4500 are pot followed by seeding with Digitaria ciliaris and Galinsoga parviflora, covering with soil and cultivating in a glass greenhouse at an average atmospheric temperature of 25° C.
(§10) Wettable powders of Target Compound (I) shown in Table 1 prepared in compliance with the preparation examples were diluted with water to the prescribed amount of chemical and uniformly sprayed onto the weeds using 100 liters of sprayed water per 10 are when Digitaria ciliaris had grown to the 4.0 to 5.0 leaf stage (plant height: 10 cm to 15 cm).
(§11) After treating for 20 days in a glass greenhouse at an average atmospheric temperature of 25° C., the herbicidal efficacy thereof was investigated.
as §5

[12] = system: Galinsoga parviflora; assay: as above; settings: 10 g a.i./10a; foliar spray at 4.0 to 5.0 leaf stage of Digitaria ciliaris; 20 days
Experimental: as §9, §10, §11, §5

SMILES	herbicidal efficacy Scirpus juncoides ([1]; 1g a.i./10a)	herbicidal efficacy Scirpus juncoides ([1]; 5g a.i./10a)	herbicidal efficacy Echinochloa crus-galli ([2]; 1g a.i./10a)	herbicidal efficacy Echinochloa crus-galli ([2]; 5g a.i./10a)	herbicidal efficacy Monochoria vaginalis ([3]; 1g a.i./10a)	herbicidal efficacy Monochoria vaginalis ([3]; 5g a.i./10a)	herbicidal efficacy Digitaria ciliaris ([4]; 5g a.i./10a)	herbicidal efficacy Digitaria ciliaris ([4]; 10g a.i./10a)	herbicidal efficacy Chenopodium album ([5]; 5g a.i./10a)	herbicidal efficacy Chenopodium album ([5]; 10g a.i./10a)	herbicidal efficacy Amaranthus retroflexus ([6]; 5g a.i./10a)	herbicidal efficacy Amaranthus retroflexus ([6]; 10g a.i./10a)	phytotoxicity Oryza sativa ([7]; 1g a.i./10a)	phytotoxicity Oryza sativa ([7]; 5g a.i./10a)	herbicidal efficacy Digitaria ciliaris ([8]; 5g a.i./10a)	herbicidal efficacy Digitaria ciliaris ([8]; 10g a.i./10a)	herbicidal efficacy Chenopodium album ([9]; 5g a.i./10a)	herbicidal efficacy Chenopodium album ([9]; 10g a.i./10a)	herbicidal efficacy Amaranthus retroflexus ([10]; 5g a.i./10a)	herbicidal efficacy Amaranthus retroflexus ([10]; 10g a.i./10a)	other results
CCOC(=O)N(C(=O)OCC)c1c(C#N)cnn1-c1nn2c(c1Cl)CCCC2 [Compound 6]	9 (9: 90% to less than 100%)	10 (10: 100%)	10 (10: 100%)	10 (10: 100%)	10 (10: 100%)	10 (10: 100%)	10 (10: 100%)	10 (10: 100%)	10 (10: 100%)	10 (10: 100%)	10 (10: 100%)	10 (10: 100%)	0 (0 (exponent): 0% to less than 10% (growth inhibition rate))	1 (1: 10% to less than 20%)	10 (10: 100%)	10 (10: 100%)	9 (9: 90% to less than 100%)	10 (10: 100%)	10 (10: 100%)	10 (10: 100%)	herbicidal efficacy Digitaria ciliaris [11]: 10 (10: 100%); herbicidal efficacy Galinsoga parviflora [12]: 10 (10: 100%)
CCOC(=O)N(C(=O)OCC)c1c(C#N)cnn1-c1nn2c(c1Br)CCCC2 [Compound 8]	9 (9: 90% to less than 100%)	9 (9: 90% to less than 100%)	10 (10: 100%)	10 (10: 100%)	10 (10: 100%)	10 (10: 100%)	10 (10: 100%)	10 (10: 100%)	10 (10: 100%)	10 (10: 100%)	10 (10: 100%)	10 (10: 100%)	0 (0 (exponent): 0% to less than 10% (growth inhibition rate))	1 (1: 10% to less than 20%)	10 (10: 100%)	10 (10: 100%)	9 (9: 90% to less than 100%)	9 (9: 90% to less than 100%)	10 (10: 100%)	10 (10: 100%)	herbicidal efficacy Digitaria ciliaris [11]: 10 (10: 100%); herbicidal efficacy Galinsoga parviflora [12]: 10 (10: 100%)
C=CCOC(=O)N(C(=O)OCC=C)c1c(C#N)cnn1-c1nn2c(c1Cl)CCCC2 [Compound 14]	9 (9: 90% to less than 100%)	10 (10: 100%)	10 (10: 100%)	10 (10: 100%)	10 (10: 100%)	10 (10: 100%)	10 (10: 100%)	10 (10: 100%)	10 (10: 100%)	10 (10: 100%)	10 (10: 100%)	10 (10: 100%)	1 (1: 10% to less than 20%)	1 (1: 10% to less than 20%)	10 (10: 100%)	10 (10: 100%)	9 (9: 90% to less than 100%)	10 (10: 100%)	10 (10: 100%)	10 (10: 100%)	herbicidal efficacy Digitaria ciliaris [11]: 10 (10: 100%); herbicidal efficacy Galinsoga parviflora [12]: 10 (10: 100%)
